PubChem BioAssay (NCI)
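All cell lines were grown in 96-well plates and treated with compound for 48 hours. Definition used: TGI = concentration required for complete inhibition of growth.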

Experiments:
Assay in all cases: DTP human tumour cell line panel, 48 h
COLO 205 colon = tested on: COLO 205 colon
HCT-15 colon = tested on: HCT-15 colon
KM12 colon = tested on: KM12 colon
ACHN renal = tested on: ACHN renal
786-0 renal = tested on: 786-0 renal
MDA-N = tested on: MDA-N
HOP-62 NSCLC = tested on: HOP-62 NSCLC
SF-539 CNS = tested on: SF-539 CNS
SK-MEL-5 melanoma = tested on: SK-MEL-5 melanoma
NCI-H460 lung = tested on: NCI-H460 lung
SR leukemia = tested on: SR leukemia
K-562 leukemia = tested on: K-562 leukemia
MDA-MB-435 = tested on: MDA-MB-435
HT29 colon = tested on: HT29 colon
A549 NSCLC = tested on: A549 NSCLC
HCT-116 colon = tested on: HCT-116 colon
LOX IMVI melanoma = tested on: LOX IMVI melanoma
HOP-92 NSCLC = tested on: HOP-92 NSCLC
HCC-2998 colon = tested on: HCC-2998 colon
SW-620 colon = tested on: SW-620 colon
TK-10 renal = tested on: TK-10 renal
CCRF-CEM leukemia = tested on: CCRF-CEM leukemia
SN12C renal = tested on: SN12C renal
SNB-19 CNS = tested on: SNB-19 CNS
NCI/ADR-RES ovarian = tested on: NCI/ADR-RES ovarian
MDA-MB-231 breast = tested on: MDA-MB-231 breast
SK-OV-3 ovarian = tested on: SK-OV-3 ovarian
OVCAR-4 ovarian = tested on: OVCAR-4 ovarian
CAKI-1 renal = tested on: CAKI-1 renal
OVCAR-5 ovarian = tested on: OVCAR-5 ovarian
T-47D breast = tested on: T-47D breast
SK-MEL-2 melanoma = tested on: SK-MEL-2 melanoma
MALME-3M melanoma = tested on: MALME-3M melanoma
NCI-H226 lung = tested on: NCI-H226 lung
SK-MEL-28 melanoma = tested on: SK-MEL-28 melanoma
OVCAR-8 ovarian = tested on: OVCAR-8 ovarian
RXF 393 renal = tested on: RXF 393 renal
OVCAR-3 ovarian = tested on: OVCAR-3 ovarian
PC-3 prostate = tested on: PC-3 prostate
UACC-257 melanoma = tested on: UACC-257 melanoma
MCF7 breast = tested on: MCF7 breast
M14 melanoma = tested on: M14 melanoma
HL-60(TB) leukemia = tested on: HL-60(TB) leukemia
SNB-75 CNS = tested on: SNB-75 CNS
DU-145 prostate = tested on: DU-145 prostate
UO-31 renal = tested on: UO-31 renal
HS 578T breast = tested on: HS 578T breast
EKVX NSCLC = tested on: EKVX NSCLC
NCI-H23 lung = tested on: NCI-H23 lung
U251 CNS = tested on: U251 CNS
SF-295 CNS = tested on: SF-295 CNS
RPMI-8226 leukemia = tested on: RPMI-8226 leukemia
UACC-62 melanoma = tested on: UACC-62 melanoma
SF-268 CNS = tested on: SF-268 CNS
IGROV1 ovarian = tested on: IGROV1 ovarian
BT-549 breast = tested on: BT-549 breast
NCI-H522 lung = tested on: NCI-H522 lung
A498 renal = tested on: A498 renal
MOLT-4 leukemia = tested on: MOLT-4 leukemia

CC1(C)/C(=C/N=O)N(O)C(C)(C)N1O
TGI (COLO 205 colon): > 100 µM
TGI (HCT-15 colon): > 100 µM
TGI (KM12 colon): > 100 µM
TGI (ACHN renal): > 100 µM
TGI (786-0 renal): > 100 µM
TGI (MDA-N): > 100 µM
TGI (HOP-62 NSCLC): > 100 µM
TGI (SF-539 CNS): > 100 µM
TGI (SK-MEL-5 melanoma): > 100 µM
TGI (NCI-H460 lung): > 100 µM
TGI (SR leukemia): > 100 µM
TGI (K-562 leukemia): > 100 µM
TGI (MDA-MB-435): 54.5 µM
TGI (HT29 colon): > 100 µM
TGI (A549 NSCLC): > 100 µM
TGI (HCT-116 colon): > 100 µM
TGI (LOX IMVI melanoma): > 100 µM
TGI (HOP-92 NSCLC): > 100 µM
TGI (HCC-2998 colon): > 100 µM
TGI (SW-620 colon): > 100 µM
TGI (TK-10 renal): > 100 µM
TGI (CCRF-CEM leukemia): > 100 µM
TGI (SN12C renal): > 100 µM
TGI (SNB-19 CNS): > 100 µM
TGI (NCI/ADR-RES ovarian): > 100 µM
TGI (MDA-MB-231 breast): > 100 µM
TGI (SK-OV-3 ovarian): > 100 µM
TGI (OVCAR-4 ovarian): > 100 µM
TGI (CAKI-1 renal): > 100 µM
TGI (OVCAR-5 ovarian): > 100 µM
TGI (T-47D breast): > 100 µM
TGI (SK-MEL-2 melanoma): > 100 µM
TGI (MALME-3M melanoma): > 100 µM
TGI (NCI-H226 lung): > 100 µM
TGI (SK-MEL-28 melanoma): > 100 µM
TGI (OVCAR-8 ovarian): > 100 µM
TGI (RXF 393 renal): > 100 µM
TGI (OVCAR-3 ovarian): > 100 µM
TGI (PC-3 prostate): > 100 µM
TGI (UACC-257 melanoma): > 100 µM
TGI (MCF7 breast): > 100 µM
TGI (M14 melanoma): > 100 µM
TGI (HL-60(TB) leukemia): > 100 µM
TGI (SNB-75 CNS): > 100 µM
TGI (DU-145 prostate): > 100 µM
TGI (UO-31 renal): > 100 µM
TGI (HS 578T breast): > 100 µM
TGI (EKVX NSCLC): > 100 µM
TGI (NCI-H23 lung): > 100 µM
TGI (U251 CNS): > 100 µM
TGI (SF-295 CNS): > 100 µM
TGI (RPMI-8226 leukemia): > 100 µM
TGI (UACC-62 melanoma): > 100 µM
TGI (SF-268 CNS): > 100 µM
TGI (IGROV1 ovarian): > 100 µM

Cc1sc2nc(-c3cccc([N+](=O)[O-])c3)c(/C=N/N=C(N)N)n2c1C
TGI (COLO 205 colon): 3.72 µM
TGI (HCT-15 colon): 3.03 µM
TGI (KM12 colon): 3.24 µM
TGI (ACHN renal): 3.08 µM
TGI (786-0 renal): 3.22 µM
TGI (MDA-N): 3.15 µM
TGI (HOP-62 NSCLC): 3.1 µM
TGI (SF-539 CNS): 3.72 µM
TGI (BT-549 breast): 2.83 µM
TGI (SK-MEL-5 melanoma): 3.03 µM
TGI (NCI-H522 lung): 3.17 µM
TGI (MDA-MB-435): 3.18 µM
TGI (HT29 colon): 2.98 µM
TGI (A549 NSCLC): 3.02 µM
TGI (LOX IMVI melanoma): 3.16 µM
TGI (HCC-2998 colon): 2.61 µM
TGI (TK-10 renal): 2.84 µM
TGI (NCI/ADR-RES ovarian): 45.1 µM
TGI (SK-OV-3 ovarian): 3.3 µM
TGI (CAKI-1 renal): 3.77 µM
TGI (OVCAR-5 ovarian): 3.06 µM
TGI (SK-MEL-2 melanoma): 3.09 µM
TGI (MALME-3M melanoma): 3.71 µM
TGI (SK-MEL-28 melanoma): 3.03 µM
TGI (OVCAR-8 ovarian): 3.23 µM
TGI (RXF 393 renal): 3.22 µM
TGI (OVCAR-3 ovarian): 4.02 µM
TGI (UACC-257 melanoma): 3.06 µM
TGI (A498 renal): 2.88 µM
TGI (M14 melanoma): 2.95 µM
TGI (HL-60(TB) leukemia): 3.63 µM
TGI (UO-31 renal): 3.13 µM
TGI (EKVX NSCLC): 3.06 µM
TGI (U251 CNS): 3.07 µM
TGI (SF-295 CNS): 2.95 µM
TGI (IGROV1 ovarian): 2.59 µM

CCN(CC)CCSc1c2cc(OC)ccc2nc2ccc(OC)cc12
TGI (COLO 205 colon): 4.14 µM
TGI (HCT-15 colon): > 100 µM
TGI (KM12 colon): > 71 µM
TGI (ACHN renal): 3.12 µM
TGI (786-0 renal): 4.1 µM
TGI (MDA-N): 8.97 µM
TGI (HOP-62 NSCLC): > 75.4 µM
TGI (SF-539 CNS): > 100 µM
TGI (BT-549 breast): 21 µM
TGI (SK-MEL-5 melanoma): 27.7 µM
TGI (NCI-H460 lung): > 61 µM
TGI (NCI-H522 lung): 3.1 µM
TGI (SR leukemia): > 21.8 µM
TGI (K-562 leukemia): > 22.6 µM
TGI (MDA-MB-435): 21.3 µM
TGI (A549 NSCLC): > 70.9 µM
TGI (HCT-116 colon): 3.42 µM
TGI (HOP-92 NSCLC): 4.61 µM
TGI (HCC-2998 colon): 40.5 µM
TGI (SW-620 colon): > 100 µM
TGI (TK-10 renal): 22.1 µM
TGI (CCRF-CEM leukemia): > 22.6 µM
TGI (SN12C renal): 9.75 µM
TGI (SNB-19 CNS): > 65.7 µM
TGI (NCI/ADR-RES ovarian): > 25.9 µM
TGI (MDA-MB-231 breast): 19.9 µM
TGI (SK-OV-3 ovarian): > 54.4 µM
TGI (OVCAR-4 ovarian): 16.9 µM
TGI (MOLT-4 leukemia): > 21.8 µM
TGI (CAKI-1 renal): 22.9 µM
TGI (OVCAR-5 ovarian): 44.5 µM
TGI (SK-MEL-2 melanoma): 44.6 µM
TGI (MALME-3M melanoma): 7.74 µM
TGI (NCI-H226 lung): 53.8 µM
TGI (SK-MEL-28 melanoma): 32.7 µM
TGI (OVCAR-8 ovarian): 35.3 µM
TGI (OVCAR-3 ovarian): 8.07 µM
TGI (PC-3 prostate): 12.1 µM
TGI (UACC-257 melanoma): 16.4 µM
TGI (A498 renal): 51.5 µM
TGI (MCF7 breast): > 100 µM
TGI (M14 melanoma): > 32.3 µM
TGI (HL-60(TB) leukemia): > 100 µM
TGI (SNB-75 CNS): 31.8 µM
TGI (DU-145 prostate): 3.56 µM
TGI (EKVX NSCLC): 29.7 µM
TGI (NCI-H23 lung): > 25.7 µM
TGI (U251 CNS): > 53.1 µM
TGI (SF-295 CNS): > 57.5 µM
TGI (RPMI-8226 leukemia): 6.96 µM
TGI (UACC-62 melanoma): 33.5 µM
TGI (SF-268 CNS): 12.7 µM
TGI (IGROV1 ovarian): 4.11 µM

CSc1cc(Cl)c(C)cc1S(=O)(=O)NC(=O)NNc1cccc(C(F)(F)F)n1
TGI (COLO 205 colon): > 100 µM
TGI (HCT-15 colon): > 100 µM
TGI (KM12 colon): > 100 µM
TGI (ACHN renal): > 100 µM
TGI (786-0 renal): > 100 µM
TGI (MDA-N): > 100 µM
TGI (HOP-62 NSCLC): > 100 µM
TGI (SF-539 CNS): > 100 µM
TGI (SK-MEL-5 melanoma): > 100 µM
TGI (NCI-H460 lung): > 100 µM
TGI (NCI-H522 lung): > 100 µM
TGI (SR leukemia): > 100 µM
TGI (K-562 leukemia): > 100 µM
TGI (MDA-MB-435): > 100 µM
TGI (HT29 colon): > 100 µM
TGI (A549 NSCLC): > 100 µM
TGI (HCT-116 colon): > 100 µM
TGI (LOX IMVI melanoma): > 100 µM
TGI (HCC-2998 colon): > 100 µM
TGI (SW-620 colon): > 100 µM
TGI (CCRF-CEM leukemia): > 100 µM
TGI (SN12C renal): > 100 µM
TGI (SNB-19 CNS): > 100 µM
TGI (NCI/ADR-RES ovarian): > 100 µM
TGI (MDA-MB-231 breast): > 100 µM
TGI (SK-OV-3 ovarian): > 100 µM
TGI (OVCAR-4 ovarian): > 100 µM
TGI (MOLT-4 leukemia): 51.8 µM
TGI (CAKI-1 renal): > 100 µM
TGI (OVCAR-5 ovarian): > 100 µM
TGI (T-47D breast): > 100 µM
TGI (SK-MEL-2 melanoma): > 100 µM
TGI (MALME-3M melanoma): > 100 µM
TGI (NCI-H226 lung): > 100 µM
TGI (SK-MEL-28 melanoma): > 100 µM
TGI (OVCAR-8 ovarian): > 100 µM
TGI (RXF 393 renal): > 100 µM
TGI (OVCAR-3 ovarian): > 100 µM
TGI (PC-3 prostate): > 100 µM
TGI (A498 renal): > 100 µM
TGI (MCF7 breast): > 100 µM
TGI (M14 melanoma): > 100 µM
TGI (SNB-75 CNS): > 100 µM
TGI (DU-145 prostate): > 100 µM
TGI (HS 578T breast): > 100 µM
TGI (EKVX NSCLC): > 100 µM
TGI (U251 CNS): > 100 µM
TGI (SF-295 CNS): > 100 µM
TGI (SF-268 CNS): > 100 µM
TGI (IGROV1 ovarian): > 100 µM
